Source: patent US11814364B2, “Pyridine N-oxide derivatives useful as factor XIa inhibitors” (Janssen Pharmaceutica NV, priority 2021, dated 2023)

biological target: human plasma kallikrein (Homo sapiens, UniProt P03952); test: Kallikrein inhibition FLINT assay with quenched AMC peptide substrate Z-Gly-Pro-Arg-AMC (end point EP or kinetic KIN reads); type: biochemical; details: kinetic reads at 5 min intervals over 30 min; read-out: Kallikrein (KIN) IC50
In short: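 Enzyme and compound were preincubated 30 min before adding 50 μM AMC substrate in pH 7.5 Tris/NaCl/CaCl2/BSA/CHAPS buffer. AMC release was read at 30 min endpoint or every 5 min.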

human plasma kallikrein, sequence (P03952 391-638 limits assumed): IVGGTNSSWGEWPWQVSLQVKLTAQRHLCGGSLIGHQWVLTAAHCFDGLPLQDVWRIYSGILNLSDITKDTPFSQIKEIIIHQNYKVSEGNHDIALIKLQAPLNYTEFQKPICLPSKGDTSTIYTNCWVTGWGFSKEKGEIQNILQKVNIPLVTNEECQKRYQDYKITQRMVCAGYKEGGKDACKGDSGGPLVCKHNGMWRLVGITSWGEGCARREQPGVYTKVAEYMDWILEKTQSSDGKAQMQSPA
human plasma kallikrein, sequence (P03952 20-390 partner limits assumed): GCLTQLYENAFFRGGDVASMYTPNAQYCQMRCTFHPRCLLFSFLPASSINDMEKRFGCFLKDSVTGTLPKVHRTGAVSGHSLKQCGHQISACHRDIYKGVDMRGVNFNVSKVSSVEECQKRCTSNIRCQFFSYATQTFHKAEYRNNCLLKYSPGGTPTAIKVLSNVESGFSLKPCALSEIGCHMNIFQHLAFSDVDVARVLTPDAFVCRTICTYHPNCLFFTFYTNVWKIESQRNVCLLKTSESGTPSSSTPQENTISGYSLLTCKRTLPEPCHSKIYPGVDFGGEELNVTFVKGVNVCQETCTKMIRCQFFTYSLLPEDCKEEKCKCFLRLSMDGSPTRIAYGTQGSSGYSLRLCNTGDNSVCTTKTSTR

Structure (SMILES)	IC50
COC(=O)Nc1ccc(-c2cnn(C(Cc3ccc(Cl)cc3)c3ccc(-c4cc(Cl)ccc4-n4cnnn4)c[n+]3[O-])c2)cc1 (stereo not shown) [Example P92]	45.5 nM
O=C(O)c1ccc(-c2cnn(C(CC3CC3C(=O)N3CCC(c4ccccc4)C3)c3ccc(-c4cc(Cl)ccc4-n4cnnn4)c[n+]3[O-])c2)cc1 (single isomer, unassigned) [Example P101]	625 nM
Cc1ncn(-c2cnn([C@H](CCOC(F)F)c3ccc(-c4c(-n5cc(C(F)(F)F)nn5)ccc(Cl)c4F)c[n+]3[O-])c2)n1 [Example P823]	566 nM
Nc1ccc(-c2cnn(C(Cn3cccn3)c3ccc(-c4c(-n5cnnn5)ccc(Cl)c4F)c[n+]3[O-])c2)c(F)n1 (single isomer, unassigned) [Example P315]	51 nM
CN(CC(c1ccc(-c2c(-n3cnnn3)ccc(Cl)c2F)c[n+]1[O-])n1cc(-c2ccncc2)cn1)C(=O)c1ccccc1 (stereo not shown) [Example P296]	36.4 nM
[O-][n+]1cc(-c2c(-n3cc(Cl)nn3)ccc(Cl)c2F)ccc1[C@@H](Cn1cc(F)cn1)n1cc(-c2ccnn2C(F)F)cn1 [Example P643]	50.5 nM
NC(=O)c1ccc(-c2cnn(C(CC3CC3C(=O)N3CCCCC3)c3ccc(-c4c(C(F)F)ccc(Cl)c4F)c[n+]3[O-])c2)cc1 (stereo not shown) [Example Q37]	99.1 nM
N#Cc1cc(-c2cnn(C(CN3CCCC3=O)c3ccc(-c4c(-n5cnnn5)ccc(Cl)c4F)c[n+]3[O-])c2)cc[n+]1[O-] (stereo not shown) [Example P466]	231 nM
COCC[C@H](c1ccc(-c2c(-n3cnnn3)ccc(Cl)c2F)c[n+]1[O-])n1cc(-c2cc(C(F)(F)F)nn2C)cn1 [Example P619]	89.3 nM
O=C(NC1CC1)c1ccc(-c2cnn(C(CC3CCCCO3)c3ccc(-c4c(-n5cnnn5)ccc(Cl)c4F)c[n+]3[O-])c2)cc1 (single isomer, unassigned) [Example P143]	58.1 nM
Cc1cc(C(N)=O)sc1-c1cnn(C(CC2CC2)c2ccc(-c3c(-n4cc(C(F)(F)F)nn4)ccc(Cl)c3F)c[n+]2[O-])c1 (single isomer, unassigned) [Example P957]	222 nM
[2H]C([2H])(C[C@H](c1ccc(-c2c(-n3cc(C(F)(F)F)nn3)ccc(Cl)c2F)c[n+]1[O-])n1cc(-c2ncnn2C)cn1)OC(F)F [Example P834]	68 nM
CC(C)c1cc(-c2cnn(C(Cn3cc(F)cn3)c3ccc(-c4c(-n5cnnn5)ccc(Cl)c4F)c[n+]3[O-])c2)ccn1 (stereo not shown) [Example P393]	36.6 nM
COc1cc(C(CC2CC2)n2cc(-c3cnn(C)c(=O)c3)cn2)[n+]([O-])cc1-c1c(C#N)ccc(Cl)c1F (single isomer, unassigned) [Example Q10]	375 nM
Cc1cc(-c2cnn(C(Cn3cc(F)cn3)c3ccc(-c4c(-n5cnnn5)ccc(Cl)c4F)c[n+]3[O-])c2)cc[n+]1[O-] (stereo not shown) [Example P472]	40.7 nM
Cc1nc(N)ccc1-c1cnn(C(CC2CC2)c2ccc(-c3c(-n4cnnn4)ccc(Cl)c3F)c[n+]2[O-])c1 (stereo not shown) [Example P183]	186 nM
O=C(O)c1ccc(-c2cnn(C(c3ccc(-c4cc(Cl)ccc4-n4cnnn4)c[n+]3[O-])C(O)c3ccccc3)c2)cc1 (single isomer, unassigned) [Example P119]	155 nM
CN(CC(c1ccc(-c2c(-n3cnnn3)ccc(Cl)c2F)c[n+]1[O-])n1cc(-c2ccnc(C(F)(F)F)c2)cn1)C(=O)CCC(=O)N1CCCCC1 (single isomer, unassigned) [Example P400]	93.8 nM
[O-][n+]1cc(-c2c(-n3cnnn3)ccc(Cl)c2F)ccc1C(Cn1cc(F)cn1)n1cc(-c2ccnn2C(F)F)cn1 (stereo not shown) [Example P645]	893 nM
[O-][n+]1cc(-c2c(-n3cnnn3)ccc(Cl)c2F)ccc1[C@@H](CC1CCC1)n1cc(-c2cn(C(F)F)nn2)cn1 [Example P657]	468 nM
[O-][n+]1cc(-c2cc(Cl)ccc2-n2cnnn2)ccc1C(Cc1ccc(Cl)cc1)n1cc(-c2ccncc2F)cn1 (stereo not shown) [Example P174]	50.8 nM
[O-][n+]1cc(-c2c(-n3cnnn3)ccc(Cl)c2F)ccc1C(Cc1ccc(F)cc1)n1cc(-c2c(Cl)nnn2C(F)F)cn1 (single isomer, unassigned) [Example P589]	520 nM
[O-][n+]1cc(-c2c(-n3cc(Cl)nn3)ccc(Cl)c2F)ccc1[C@@H](CCOC(F)F)n1cc(-c2nncn2C(F)F)cn1 [Example P692]	334 nM
COC(=O)Nc1ccc(-c2cnn(C(CC3CC3C(N)=O)c3ccc(-c4c(-n5cnnn5)ccc(Cl)c4F)c[n+]3[O-])c2)cc1 (stereo not shown) [Example P249]	668 nM
Cn1ccc(C[C@H](c2ccc(-c3cc(Cl)ccc3OCC(F)(F)F)c[n+]2[O-])n2cc(-c3ccc(C(=O)O)cc3)cn2)n1 [Example Q58]	517 nM
COc1cc(C(Cc2ccn(C(F)F)n2)n2cc(-c3ccc(C(N)=O)c(F)c3)cn2)[n+]([O-])cc1-c1cc(Cl)ccc1C(C)=O (single isomer, unassigned) [Example Q78]	510 nM
Cn1ncnc1-c1cnn([C@H](CCOC(F)F)c2ccc(-c3cc(Cl)ccc3-n3cc(C(F)(F)F)nn3)c[n+]2[O-])c1 [Example P805]	256 nM
[O-][n+]1ccc(-c2cnn(C(Cc3ccc(F)cc3)c3ccc(-c4c(OC(F)F)ccc(Cl)c4F)c[n+]3[O-])c2)cc1 (single isomer, unassigned) [Example Q17]	7820 nM
O=C(O)C1CCN(C(=O)C2CC2CC(c2ccc(-c3c(-n4cnnn4)ccc(Cl)c3F)c[n+]2[O-])n2cc(-c3ccccc3)cn2)CC1 (stereo not shown) [Example P213]	491 nM
[O-][n+]1cc(-c2c(-n3cc(Cl)nn3)ccc(Cl)c2F)ccc1[C@H](Cn1cc(F)cn1)n1cc(-c2c(F)cnn2C(F)F)cn1 [Example P634]	739 nM

Compounds with a lower IC50, results first:

IC50	Structure (SMILES)
26.2 nM	Cn1ncc(O)c1-c1cnn(C(CCOC(F)F)c2ccc(-c3c(-n4cc(Cl)nn4)ccc(Cl)c3F)c[n+]2[O-])c1 (stereo not shown) [Example P747]
4 nM	[O-][n+]1cc(-c2c(-n3cnnn3)ccc(Cl)c2F)ccc1[C@@H](Cc1ccc(F)cc1)n1cc(-c2cnnn2C(F)F)cn1 [Example P599]
29.1 nM	COC(=O)Nc1ccc(-c2cnn(C(Cc3ccn(C)n3)c3ccc(-c4c(-n5cnnn5)ccc(Cl)c4F)c[n+]3[O-])c2)cc1 (racemic) [Example P327]
24.9 nM	CN(CC(c1ccc(-c2c(-n3cnnn3)ccc(Cl)c2F)c[n+]1[O-])n1cc(-c2ccncc2)cn1)C(=O)Cc1ccccc1 (stereo not shown) [Example P299]
11.8 nM	[O-][n+]1cc(-c2c(-n3cnnn3)ccc(Cl)c2F)ccc1C(Cn1nccc1C(F)(F)F)n1cc(-c2ccnc(F)c2)cn1 (stereo not shown) [Example P346]
4.9 nM	Nc1nc(Cl)c(-c2cnn(C(CC3CC3)c3ccc(-c4c(-n5cnnn5)ccc(Cl)c4F)c[n+]3[O-])c2)s1 (stereo not shown) [Example P624]
4.5 nM	COC(=O)Nc1ccc(-c2cnn(C(CC3CC3)c3cc(OC)c(-c4c(-n5cnnn5)ccc(Cl)c4F)c[n+]3[O-])c2)cc1 (stereo not shown) [Example P93]
18.9 nM	[O-][n+]1cc(-c2c(-n3cnnn3)ccc(Cl)c2F)ccc1[C@@H](Cc1ccc(C(F)(F)F)nc1)n1cc(-c2ncnn2C(F)F)cn1 [Example P783]
21.6 nM	COC(=O)Nc1ccc(-c2cnn(C(CN(C)C(=O)OC)c3ccc(-c4c(-n5cnnn5)ccc(Cl)c4F)c[n+]3[O-])c2)cc1 (stereo not shown) [Example P476]
6.4 nM	[O-][n+]1cc(-c2c(-n3cnnn3)ccc(Cl)c2F)ccc1[C@@H](Cc1ccn(C(F)F)n1)n1cc(-c2ccnn2C(F)F)cn1 [Example P734]
7.7 nM	Cc1cc(-c2cnn(C(CCOC(F)F)c3ccc(-c4c(-n5cnnn5)ccc(Cl)c4F)c[n+]3[O-])c2)ccn1 (stereo not shown) [Example P307]
25 nM	[O-][n+]1cc(-c2c(-n3cnnn3)ccc(Cl)c2F)ccc1[C@@H](CCOC(F)F)n1cc(-c2ccn(C(F)F)n2)cn1 [Example P563]
3.1 nM	[O-][n+]1cc(-c2c(-n3cnnn3)ccc(Cl)c2F)ccc1[C@@H](Cc1ccc(F)cc1)n1cc(-c2ccnn2C(F)F)cn1 [Example P568]
13.5 nM	O=C1CCCN1CC(c1ccc(-c2c(-n3cnnn3)ccc(Cl)c2F)c[n+]1[O-])n1cc(-c2ccnc(C(F)(F)F)c2)cn1 (single isomer, unassigned) [Example P364]
2.9 nM	NC(=O)c1ccc(-c2cnn(C(Cc3ccn(C(F)F)n3)c3ccc(-c4c(C(F)F)ccc(Cl)c4F)c[n+]3[O-])c2)cc1F (single isomer, unassigned) [Example Q67]
16 nM	O=C(c1cnn(CC(c2ccc(-c3c(-n4cnnn4)ccc(Cl)c3F)c[n+]2[O-])n2cc(-c3ccnc(C(F)(F)F)c3)cn2)c1)N1CCCCC1 (single isomer, unassigned) [Example P411]
26.9 nM	O=C(O)c1ccc(-c2cnn(C(CN3CCCC3=O)c3ccc(-c4cc(Cl)ccc4-n4cnnn4)c[n+]3[O-])c2)cc1 (stereo not shown) [Example P163]
11 nM	COc1cc(C(Cc2ccn(C(F)F)n2)n2cc(-c3ccc(C(=O)O)c(F)c3)cn2)[n+]([O-])cc1-c1c(C(F)F)ccc(Cl)c1F (stereo not shown) [Example Q74]
1.4 nM	[2H]C([2H])(C[C@H](c1ccc(-c2c(-n3cnnn3)ccc(Cl)c2F)c[n+]1[O-])n1cc(-c2cn(C)nc2Cl)cn1)OC(F)F [Example P850]
6.5 nM	[O-][n+]1cc(-c2c(-n3cnnn3)ccc(Cl)c2F)ccc1[C@@H](Cc1ccc(C(F)(F)F)nc1)n1cc(-c2ccnn2C(F)F)cn1 [Example P777]
3.3 nM	O=C(NC1CC1)c1ccc(-c2cnn(C(Cc3ccc(F)cc3)c3ccc(-c4c(-n5cnnn5)ccc(Cl)c4F)c[n+]3[O-])c2)cc1 (stereo not shown) [Example P125]
11.3 nM	O=C1CCC(c2ccc(-c3cnn(C(Cc4ccc(F)cc4)c4ccc(-c5c(-n6cnnn6)ccc(Cl)c5F)c[n+]4[O-])c3)cc2)N1 (stereo not shown) [Example P121]
2.5 nM	CCOc1cc(C(CC2CC2)n2cc(-c3ccncc3)cn2)[n+]([O-])cc1-c1c(-n2cnnn2)ccc(Cl)c1F (stereo not shown) [Example P251]
2.6 nM	Nc1ccc(-c2cnn(C(Cn3cc(F)cn3)c3ccc(-c4c(-n5cnnn5)ccc(Cl)c4F)c[n+]3[O-])c2)c(F)n1 (stereo not shown) [Example P281]
9.7 nM	[O-][n+]1cc(-c2c(-n3cnnn3)ccc(Cl)c2F)ccc1C(Cc1ccn(C(F)F)n1)n1cc(-c2ccnc(C(F)(F)F)c2)cn1 (stereo not shown) [Example P703]
